Drawing on ChEMBL document CHEMBL5390237, “Discovery of Selective Histone Deacetylase 1 and 2 Inhibitors: Screening of a Focused Library Constructed by Click Chemistry, Kinetic Binding Analysis, and Biological Evaluation” (J Med Chem, 2023), this text covers inhibition for 33 molecules.

Sequence of Histone deacetylase 2 (Q92769 whole entry): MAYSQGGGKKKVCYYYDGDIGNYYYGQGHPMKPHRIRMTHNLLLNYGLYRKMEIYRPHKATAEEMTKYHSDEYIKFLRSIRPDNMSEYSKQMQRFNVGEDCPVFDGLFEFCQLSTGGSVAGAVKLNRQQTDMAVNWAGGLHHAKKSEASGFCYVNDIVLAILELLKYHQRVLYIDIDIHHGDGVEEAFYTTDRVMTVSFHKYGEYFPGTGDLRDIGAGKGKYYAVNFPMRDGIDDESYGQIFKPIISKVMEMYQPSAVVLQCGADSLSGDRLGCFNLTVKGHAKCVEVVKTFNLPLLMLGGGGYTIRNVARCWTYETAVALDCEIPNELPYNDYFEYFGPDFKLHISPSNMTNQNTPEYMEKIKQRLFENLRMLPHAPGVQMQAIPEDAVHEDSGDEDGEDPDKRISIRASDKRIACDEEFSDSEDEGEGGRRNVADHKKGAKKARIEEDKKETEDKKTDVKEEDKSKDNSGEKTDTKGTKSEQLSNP

The test concerns the target Histone deacetylase 2 (Homo sapiens, UniProt Q92769). Put plainly: Inhibition of full-length recombinant human C-terminal GST tagged HDAC2 expressed in Sf9 insect cells using aminoluciferin peptide substrate at 100 nM preincubated for 3 hrs followed by substrate addition and measured after 30 mins by HDAC-Glo I/II chemiluminescence assay. The note with it: time 3.5 hrs.
As for `Nc1ccc(-c2ccsc2)cc1NC(=O)c1cn(CCc2cccc([N+](=O)[O-])c2)nn1`, the inhibition stood at 1%.
In the case of `Nc1ccc(-c2ccccc2)cc1NC(=O)CCc1cn(Cc2nc3ccccc3[nH]2)nn1`, the inhibition turned out to be 27%.
For `Nc1ccc(-c2cccs2)cc1NC(=O)c1cccc(-c2cn(/C=C/c3ccccc3)nn2)c1`, the inhibition came out at 10%.
Consider `Nc1ccc(-c2ccccc2)cc1NC(=O)CCc1cn(CCC23CC4CC(CC(C4)C2)C3)nn1`, for which the inhibition was 0%.
The same measure for `Nc1ccc(-c2ccc(F)cc2)cc1NC(=O)CCc1cn(CCc2cccc(Cl)c2)nn1`: 17%.
For `Nc1ccc(-c2ccccc2)cc1NC(=O)CCc1cn(-c2ccc(I)cc2)nn1`, the inhibition worked out at 0%.
In the case of `Nc1ccc(-c2cccs2)cc1NC(=O)c1ccc(-c2cn(CCCCCCCC(=O)O)nn2)s1`, the inhibition stood at 14%.
For the molecule `Nc1ccc(-c2cccs2)cc1NC(=O)c1cccc(-c2cn(CCc3ccc(Cl)cc3)nn2)c1`, the inhibition amounted to 0%.
As for `Nc1ccc(-c2cccs2)cc1NC(=O)c1ccc(-c2cn(CCc3ccccc3[N+](=O)[O-])nn2)cc1`, the inhibition came out at 33%.
The same measure for `Nc1ccc(-c2ccsc2)cc1NC(=O)c1cn(CCCCCCC(=O)O)nn1`: 8%; for `Nc1ccc(-c2cccs2)cc1NC(=O)c1cn(CCN2CCOCC2)nn1`: 0%.
For the molecule `Nc1ccc(-c2ccc(F)cc2)cc1NC(=O)c1cn(CCN2CCc3ccccc3C2)nn1`, the inhibition turned out to be 22%.
Consider `Nc1ccc(-c2cccs2)cc1NC(=O)c1cn(Cc2cccc(-c3ccccc3)c2)nn1`, for which the inhibition amounted to 6%.
In the case of `Nc1ccc(-c2cccs2)cc1NC(=O)c1cccc(-c2cn(CCc3ccccc3C(F)(F)F)nn2)c1`, the inhibition was 2%.
`Nc1ccc(-c2ccsc2)cc1NC(=O)c1cn(Cc2cccc3ccccc23)nn1`: the inhibition came to 4%.
The same measure for `Cc1ccc(-n2cc(C(=O)Nc3cc(-c4cccs4)ccc3N)nn2)cc1C`: 0%.
Take `Nc1ccc(-c2ccccc2)cc1NC(=O)CCc1cn(/C=C/c2ccccc2)nn1`: the inhibition came out at 15%.
Take `Nc1ccc(-c2cccs2)cc1NC(=O)c1cccc(-c2cn(CC3CCCCC3)nn2)c1`: the inhibition worked out at 0%.
As for `Nc1ccc(-c2ccsc2)cc1NC(=O)CCc1cn(CCCCCCC(=O)O)nn1`, the figure is 0%; as for `Nc1ccc(-c2ccccc2)cc1NC(=O)CCc1cn(CCN2CCOCC2)nn1`, 0%; as for `COc1ccccc1CCn1cc(CCC(=O)Nc2cc(-c3cccs3)ccc2N)nn1`, 12%.
On to `Nc1ccc(-c2cccs2)cc1NC(=O)c1ccc(-c2cn(CCN3CCOCC3)nn2)cc1`, for which the inhibition stood at 75%.
Regarding `Nc1ccc(-c2cccnc2)cc1NC(=O)CCc1cn(Cc2cc3ccccc3s2)nn1`, the inhibition was found to be 9%.
Consider `Nc1ccc(-c2ccsc2)cc1NC(=O)c1cn(-c2ccc(I)cc2)nn1`, for which the inhibition worked out at 0%.
As for `Nc1ccc(-c2cccs2)cc1NC(=O)c1cccc(-c2cn(CCc3ccccc3)nn2)c1`, the inhibition was 17%.
For `Nc1ccc(-c2ccc(F)cc2)cc1NC(=O)c1cn(CCc2ccccc2[N+](=O)[O-])nn1`, the inhibition is 12%.
For `Nc1ccc(-c2cccs2)cc1NC(=O)CCc1cn(-c2ccccc2-c2ccccc2)nn1`, the inhibition came to 0%.
With `Nc1ccc(-c2cccs2)cc1NC(=O)c1ccc(-c2cn(CCc3ccc([N+](=O)[O-])cc3)nn2)cc1`, the inhibition stood at 42%.
The same measure for `Nc1ccc(-c2ccsc2)cc1NC(=O)CCc1cn(CCN2CCOCC2)nn1`: 0%; for `Nc1ccc(-c2ccc(F)cc2)cc1NC(=O)CCc1cn(Cc2cccc3ccccc23)nn1`: 14%.
In the case of `Nc1ccc(-c2cccs2)cc1NC(=O)c1ccc(-c2cn(-c3ccc(I)cc3)nn2)s1`, the inhibition was 0%.
Take `Nc1ccc(-c2cccnc2)cc1NC(=O)CCc1cn(CCc2cccc(C(F)(F)F)c2)nn1`: the inhibition turned out to be 13%.
Consider `Nc1ccc(-c2cccs2)cc1NC(=O)c1cccc(-c2cn(Cc3ccc4ccccc4c3)nn2)c1`, for which the inhibition came to 6%.

By inhibition is commonly meant how much of the control response was suppressed.
